Among the data in PubChem BioAssay (NCI) are TGI values, retold here.

Among the test systems are KM12 colon; HCT-116 colon; DU-145 prostate; IGROV1 ovarian; HCC-2998 colon; UACC-62 melanoma; MDA-MB-231 breast; TK-10 renal; UACC-257 melanoma; SF-539 CNS.
Common to all, as to test: DTP human tumour cell line panel, 48 h

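Interpolation was linear, between the two tested concentrations surrounding the appropriate level; five concentrations were tested over 48 hours in 96-well plates. TGI: concentration producing complete growth inhibition.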 Bounds are passed on as bounds.

With `COc1cc(/C=C/C(=O)OC[C@]23O[C@H]2[C@@H](OC2OC(C)C(O)C(O)C2O)C2C=CO[C@@H](OC4OC(CO)C(O)C(O)C4O)C23)ccc1O` (stereo partly specified), the concentration for total growth inhibition (TGI) in the assay on KM12 colon, in the assay with HCT-116 colon, in the assay with DU-145 prostate, with IGROV1 ovarian, with HCC-2998 colon and with UACC-62 melanoma was above 100 µM throughout. The TGI with MDA-MB-231 breast and with TK-10 renal was above 100 µM each time.

On to `c1ccc2c3c(c(N4CCNCC4)nc2c1)CCCC3`, for which the TGI (as a rule, the concentration giving total growth inhibition) in the assay with KM12 colon was found to be 33.7 µM; with HCT-116 colon, 27.5 µM; with DU-145 prostate, 28.6 µM; in the assay with IGROV1 ovarian, 25 µM; in the assay with UACC-257 melanoma, 20.6 µM; in the assay on SF-539 CNS, 23.2 µM. Also, the TGI is 4.15 µM in the assay with HCC-2998 colon, 30.4 µM in the assay with UACC-62 melanoma, 27.4 µM in the assay on MDA-MB-231 breast and 26.6 µM in the assay with TK-10 renal.

For the compound `COc1ccc(/C=N/N=C(N)N)c(C(=O)O)c1OC`, the concentration for total growth inhibition (TGI) is above 100 µM in the assay with KM12 colon; above 100 µM in the assay with HCT-116 colon; above 10 µM with IGROV1 ovarian; above 100 µM in the assay with UACC-257 melanoma; above 100 µM with SF-539 CNS; above 100 µM in the assay on UACC-62 melanoma. This compound also yielded a concentration for total growth inhibition (TGI) in the assay on TK-10 renal above 100 µM.

For `NC(=O)c1ccc(N)nc1`, the TGI in the assay with KM12 colon is above 400 µM; with HCT-116 colon, above 400 µM; in the assay with DU-145 prostate, above 400 µM; in the assay on IGROV1 ovarian, above 400 µM; with UACC-257 melanoma, above 400 µM; in the assay on SF-539 CNS, 28.3 µM. Besides, the TGI in the assay with HCC-2998 colon, in the assay with UACC-62 melanoma, in the assay with MDA-MB-231 breast and in the assay on TK-10 renal was above 400 µM in each case.

Consider `CN(C)CCNc1ccccn1`, for which the TGI in the assay with KM12 colon, in the assay with HCT-116 colon, with DU-145 prostate, in the assay on IGROV1 ovarian, with UACC-257 melanoma and in the assay with HCC-2998 colon was above 100 µM throughout. Moreover, the TGI in the assay with UACC-62 melanoma, in the assay on MDA-MB-231 breast and in the assay with TK-10 renal was above 100 µM in each case.

`O=C1CCCc2ccc3c(c21)CC1(Cc2cc4c(cc2C1)CCCC4)C3`: the concentration for total growth inhibition (TGI) with KM12 colon is 66.3 µM; with HCT-116 colon, 34.6 µM; in the assay with DU-145 prostate it was above 100 µM; in the assay with IGROV1 ovarian, 54.6 µM; in the assay on UACC-257 melanoma, 47.8 µM; with SF-539 CNS it was 48.7 µM. Further, the concentration for total growth inhibition (TGI) in the assay with HCC-2998 colon was above 100 µM; with UACC-62 melanoma, 49.2 µM; in the assay with MDA-MB-231 breast it was 38.2 µM; in the assay on TK-10 renal it was 46.2 µM.

`CS(=O)(=O)c1ccc(C2=C(c3ccccc3)C(=O)OC2)cc1`: the TGI in the assay on KM12 colon, in the assay with HCT-116 colon, in the assay with DU-145 prostate, with IGROV1 ovarian, in the assay with UACC-257 melanoma and in the assay with SF-539 CNS was above 100 µM each time. The total growth inhibition concentration (TGI) with HCC-2998 colon, with UACC-62 melanoma, in the assay with MDA-MB-231 breast and in the assay with TK-10 renal was above 100 µM each time.

Consider `O=C1OS2(OC(=O)c3cccc4cccc2c34)c2ccccc21` (stereo unspecified), for which the total growth inhibition concentration (TGI) with KM12 colon, in the assay on HCT-116 colon, in the assay on DU-145 prostate, in the assay with IGROV1 ovarian, with UACC-257 melanoma and with SF-539 CNS was above 100 µM each time. For the same compound, the TGI in the assay with MDA-MB-231 breast and in the assay on TK-10 renal was above 100 µM in each case.

For `CC(C)OCC(O)COc1cc(=O)oc2ccccc12` (stereo unspecified), the total growth inhibition concentration (TGI) in the assay with KM12 colon, with HCT-116 colon, with DU-145 prostate, with IGROV1 ovarian, with UACC-257 melanoma and in the assay with HCC-2998 colon was above 100 µM each time. The TGI in the assay with UACC-62 melanoma, in the assay on MDA-MB-231 breast and in the assay with TK-10 renal was above 100 µM each time.

Regarding `COc1ccc(/C=C/C=C2C(=O)NC(=S)NC2=O)cc1`, the TGI in the assay on KM12 colon worked out at 34.6 µM; with HCT-116 colon, 13.7 µM; in the assay with DU-145 prostate, 17.7 µM; in the assay on IGROV1 ovarian it was 15.4 µM; in the assay with UACC-257 melanoma, 22 µM; in the assay on SF-539 CNS it was 15.8 µM. In addition, the TGI in the assay on HCC-2998 colon was found to be 21.3 µM; with UACC-62 melanoma, 9.1 µM; in the assay with MDA-MB-231 breast it was 4.57 µM; in the assay on TK-10 renal, 7.33 µM.

For `CC(C)=CCC[C@@H](C)c1c(O)c(O)c(C)c2nc3ccccc3nc12`, the concentration for total growth inhibition (TGI) in the assay on KM12 colon is 13.2 µM; in the assay on HCT-116 colon it was 12.2 µM; with DU-145 prostate, 10.3 µM; in the assay on IGROV1 ovarian, 10.7 µM; in the assay with UACC-257 melanoma, 12.7 µM; in the assay with SF-539 CNS it was 6.71 µM. Also, the TGI in the assay on HCC-2998 colon stood at 22.2 µM; in the assay on UACC-62 melanoma, 6.72 µM; in the assay with MDA-MB-231 breast, 15 µM; in the assay on TK-10 renal it was 17 µM.

Take `Cc1cc([C@H](C#N)c2nc3ccccc3s2)nc(Cl)n1`: the TGI with KM12 colon amounted to 9.08 µM; in the assay on HCT-116 colon, 15.3 µM; in the assay on DU-145 prostate, 91.7 µM; in the assay with IGROV1 ovarian, 23.3 µM; in the assay with UACC-257 melanoma it was 22.4 µM; in the assay with SF-539 CNS, 64 µM. Moreover, the TGI was 16.3 µM with HCC-2998 colon, 20.5 µM in the assay with UACC-62 melanoma, 11 µM in the assay on MDA-MB-231 breast and 44.1 µM in the assay on TK-10 renal.

On to `CC1(C)OC2C(CO)OC(/N=C(\NC#N)Oc3ccccc3)C2O1` (stereo unspecified), for which the TGI in the assay with KM12 colon, in the assay on HCT-116 colon, in the assay with IGROV1 ovarian, in the assay with UACC-257 melanoma, in the assay with SF-539 CNS and in the assay on HCC-2998 colon was above 100 µM throughout. Also, the concentration for total growth inhibition (TGI) with UACC-62 melanoma and with TK-10 renal was above 100 µM each time.

Take `O=C1CCCn2c3ccccc3c3ccnc1c32`: the TGI with KM12 colon was above 100 µM; with HCT-116 colon it was above 100 µM; with IGROV1 ovarian, above 100 µM; in the assay with UACC-257 melanoma, above 56.1 µM; in the assay with SF-539 CNS, above 100 µM; in the assay with HCC-2998 colon, above 100 µM. In the assay on UACC-62 melanoma, this compound displayed a total growth inhibition concentration (TGI) of 98 µM.

Regarding `C=CCn1c(-c2ccc(N=NNc3ccc(-c4n[nH]c(=S)n4CC=C)cc3)cc2)n[nH]c1=S`, the TGI in the assay with DU-145 prostate is 16 µM; with IGROV1 ovarian it was 15.1 µM; in the assay on UACC-257 melanoma, above 100 µM; in the assay with MDA-MB-231 breast, above 100 µM; in the assay with TK-10 renal it was above 100 µM.
